test: log P value (physical constant); format: physicochemical; details: acidic

Structure (SMILES)	logP
CCOC(=O)c1c(CC)nn(C)c1NC(=O)Cc1cccc(Cl)c1 [Example 89, 5-(3-chloro-phenyl-acetyl)-amino-3-ethyl4-ethoxycarbonyl-l-methyl-pyrazole]	2.65

same assay, conditions: logP, Table 4

Structure (SMILES)	Physical constant (logP)
CCc1nn(C)c(NC(=O)Cc2c(C)cc(C)cc2C)c1Cl [Example 102]	logP = 3.01
CCOC(=O)c1c(CC)nn(C)c1NC(=O)Cc1ccc(OCc2ccccc2)cc1 [Example 104]	logP = 3.26
CCc1cc(NC(=O)Cc2ccc(Br)cc2)n(C)n1 [Example 105]	logP = 2.13
CCOC(=O)c1c(CC)nn(C)c1NC(=O)C=Cc1ccc(Oc2ccc(C#N)cc2)cc1 [Example 106]	logP = 3.16
CCOC(=O)c1c(CC)nn(C)c1NC(=O)C=Cc1ccc(Oc2ccc([N+](=O)[O-])cc2)cc1 [Example 107]	logP = 3.41
CCc1nn(C)c(NC(=O)C=Cc2ccc(Oc3ccc([N+](=O)[O-])cc3)cc2)c1C#N [Example 108]	logP = 3.05
Cn1nc(C2CC2)cc1NC(=O)Cc1ccc(Oc2ccc(C#N)cc2)cc1 [Example 109]	logP = 2.45
Cn1nc(C2CC2)c(Cl)c1NC(=O)Cc1ccc(Oc2ccc(C#N)cc2)cc1 [Example 110]	logP = 2.90
CCOC(=O)c1c(CC)nn(C)c1NC(=O)Cc1cccc(Oc2ccccc2)c1 [Example 111]	logP = 3.28
Cc1cc(NC(=O)Cc2ccccc2Cl)n(CCC#N)n1 [Example 113]	logP = 1.77
CC(=O)c1cccc(CC(=O)Nc2c(C#N)c(C)nn2C)c1 [Example 114]	logP = 1.48
CCc1nn(C)c(NC(=O)Cc2cccc(C(C)=O)c2)c1C#N [Example 115]	logP = 1.71
COC(=O)c1c(C)nn(C)c1NC(=O)Cc1cccc(C(C)=O)c1 [Example 116]	logP = 1.50
CC(=O)Oc1cccc(CC(=O)Nc2c(C#N)c(C)nn2C)c1 [Example 119]	logP = 1.88
CCc1nn(C)c(NC(=O)Cc2ccc(OC(C)=O)cc2)c1C#N [Example 120]	logP = 1.84
Cc1cc(NC(=O)Cc2ccc(Cl)cc2Cl)n(C)n1 [Example 121]	logP = 2.06
Cc1nn(C)c(NC(=O)Cc2ccccc2C(=O)O)c1Cl [Example 122]	logP = 1.50
CC(=NO)c1cccc(CC(=O)Nc2c(Cl)c(C)nn2C)c1 [Example 123]	logP = 1.85
CON=C(C)c1cccc(CC(=O)Nc2c(Cl)c(C)nn2C)c1 [Example 124]	logP = 2.32
CCON=C(C)c1cccc(CC(=O)Nc2c(Cl)c(C)nn2C)c1 [Example 125]	logP = 2.88
CC(=NOCc1ccccc1)c1cccc(CC(=O)Nc2c(Cl)c(C)nn2C)c1 [Example 126]	logP = 3.31
CC(=NOCc1ccc(C(F)(F)F)cc1)c1cccc(CC(=O)Nc2c(Cl)c(C)nn2C)c1 [Example 127]	logP = 3.83

Structure (SMILES)	Physical constant (logP)
CC(=NOCc1ccc(Cl)nc1)c1cccc(CC(=O)Nc2c(Cl)c(C)nn2C)c1 [Example 128]	logP = 2.80
CC(=NOCc1ccc(Cl)cc1Cl)c1cccc(CC(=O)Nc2c(Cl)c(C)nn2C)c1 [Example 129]	logP = 4.30
CC(=NOC(C)(C)C)c1cccc(CC(=O)Nc2c(Cl)c(C)nn2C)c1 [Example 130]	logP = 3.53
CC(=NOCc1c(Cl)cccc1Cl)c1cccc(CC(=O)Nc2c(Cl)c(C)nn2C)c1 [Example 131]	logP = 3.91
C=CCON=C(C)c1cccc(CC(=O)Nc2c(Cl)c(C)nn2C)c1 [Example 132]	logP = 2.80
CCCNC(=O)c1ccccc1CC(=O)Nc1c(Cl)c(C)nn1C [Example 133]	logP = 1.92
Cc1nn(C)c(NC(=O)Cc2ccccc2C(=O)NCc2ccc(Cl)nc2)c1Cl [Example 134]	logP = 1.91
COC(=O)c1c(C)nn(C)c1NC(=O)Cc1cccc(Br)c1 [Example 135]	logP = 2.11
CCc1nn(C)c(NC(=O)Cc2c(C)cc(C)cc2C)c1C#N [Example 136]	logP = 2.83
Cc1cc(C)c(CC(=O)Nc2c(C#N)c(C)nn2C)c(C)c1 [Example 137]	logP = 2.36
Cc1ccc(Oc2ccccc2CC(=O)Nc2c(Cl)c(C)nn2C)c(C)c1 [Example 138]	logP = 3.44
Cc1nn(C)c(NC(=O)Cc2ccc(-c3ccccc3)cc2)c1Cl [Example 139]	logP = 2.81
Cc1ccc(-c2cccc(Cl)c2)cc1CC(=O)Nc1c(Cl)c(C)nn1C [Example 140]	logP = 3.53
Cc1cc(C)cc(-c2cc(C)c(CC(=O)Nc3c(Cl)c(C)nn3C)c(C)c2)c1 [Example 141]	logP = 4.09
COc1ccccc1-c1cc(C)c(CC(=O)Nc2c(Cl)c(C)nn2C)c(C)c1 [Example 142]	logP = 3.25
Cc1cc(-c2cccc(Cl)c2)cc(C)c1CC(=O)Nc1c(Cl)c(C)nn1C [Example 143]	logP = 3.79
Cc1ccc(-c2ccc(Cl)cc2)c(C)c1CC(=O)Nc1c(Cl)c(C)nn1C [Example 144]	logP = 3.84
Cc1cc(C)c(-c2ccccc2Cl)cc1CC(=O)Nc1c(Cl)c(C)nn1C [Example 145]	logP = 3.64
Cc1cc(C)c(-c2ccc(Cl)cc2)cc1CC(=O)Nc1c(Cl)c(C)nn1C [Example 146]	logP = 3.82
Cc1cc(C)c(-c2ccc(Cl)cc2)c(C)c1CC(=O)Nc1c(Cl)c(C)nn1C [Example 147]	logP = 4.08
Cc1nn(C)c(NC(=O)Cc2c(F)cc(F)c(F)c2C(F)(F)F)c1Cl [Example 148]	logP = 2.60
Cc1ccc(Oc2ccccc2CC(=O)Nc2c(C#N)c(C)nn2C)c(C)c1 [Example 149]	logP = 3.17

Structure (SMILES)	Physical constant (logP)
Cc1nn(C)c(NC(=O)Cc2ccc(-c3ccccc3)cc2)c1C#N [Example 150]	logP = 2.57
Cc1ccc(-c2ccc(Cl)cc2)cc1CC(=O)Nc1c(C#N)c(C)nn1C [Example 151]	logP = 3.20
Cc1cc(C)cc(-c2cc(C)c(CC(=O)Nc3c(C#N)c(C)nn3C)c(C)c2)c1 [Example 152]	logP = 3.88
COc1ccccc1-c1cc(C)c(CC(=O)Nc2c(C#N)c(C)nn2C)c(C)c1 [Example 153]	logP = 2.95
Cc1cc(-c2ccc(Cl)cc2)cc(C)c1CC(=O)Nc1c(C#N)c(C)nn1C [Example 154]	logP = 3.46
Cc1cc(-c2cccc(Cl)c2)cc(C)c1CC(=O)Nc1c(C#N)c(C)nn1C [Example 155]	logP = 3.42
Cc1ccc(-c2ccc(Cl)cc2)c(C)c1CC(=O)Nc1c(C#N)c(C)nn1C [Example 156]	logP = 3.43
Cc1cc(C)c(-c2ccccc2Cl)cc1CC(=O)Nc1c(C#N)c(C)nn1C [Example 157]	logP = 3.24
Cc1cc(C)c(-c2ccc(Cl)cc2)cc1CC(=O)Nc1c(C#N)c(C)nn1C [Example 158]	logP = 3.49
Cc1cc(C)c(-c2ccc(Cl)cc2)c(C)c1CC(=O)Nc1c(C#N)c(C)nn1C [Example 159]	logP = 3.70
Cc1nn(C)c(NC(=O)Cc2c(F)cc(F)c(F)c2C(F)(F)F)c1C#N [Example 160]	logP = 2.32
CCc1nn(C)c(NC(=O)Cc2ccccc2Oc2ccc(C)cc2C)c1C#N [Example 161]	logP = 3.44
CCc1nn(C)c(NC(=O)Cc2ccc(-c3ccccc3)cc2)c1C#N [Example 162]	logP = 2.81
CCc1nn(C)c(NC(=O)Cc2cc(-c3ccc(Cl)cc3)ccc2C)c1C#N [Example 163]	logP = 3.49
CCc1nn(C)c(NC(=O)Cc2c(C)cc(-c3cc(C)cc(C)c3)cc2C)c1C#N [Example 164]	logP = 3.96
CCc1nn(C)c(NC(=O)Cc2c(C)cc(-c3ccccc3OC)cc2C)c1C#N [Example 165]	logP = 3.20
CCc1nn(C)c(NC(=O)Cc2c(C)cc(-c3ccc(Cl)cc3)cc2C)c1C#N [Example 166]	logP = 3.74
CCc1nn(C)c(NC(=O)Cc2c(C)cc(-c3cccc(Cl)c3)cc2C)c1C#N [Example 167]	logP = 3.70
CCc1nn(C)c(NC(=O)Cc2cc(-c3ccccc3Cl)c(C)cc2C)c1C#N [Example 169]	logP = 3.51
CCc1nn(C)c(NC(=O)Cc2cc(-c3ccc(Cl)cc3)c(C)cc2C)c1C#N [Example 170]	logP = 3.77
CCc1nn(C)c(NC(=O)Cc2c(F)cc(F)c(F)c2C(F)(F)F)c1C#N [Example 172]	logP = 2.59

— US6444612B1, “Use of 5-amino-pyrazol-derivatives for combating micro-organisms” (Bayer Aktiengesellschaft, priority 1998, dated 2002)
